# Reference: ChEMBL document CHEMBL1201862, “PubChem BioAssay data set” (2004)
# Calls of active or inactive are those of the source.
# How the values were obtained:
# [1] = general cell-killing toxicity readout – plate reader, dry powder samples, cytotoxicity control for PAX8 inhibitor project, dose response (AID 743021); type: functional, cell-based
# Paired box protein Pax-8 = Paired box protein Pax-8 (Homo sapiens, UniProt Q06710); experiment: PAX8 transcriptional activity inhibition in RMG-I – RMG-I cells, luciferase, cherry-pick, dose response (AID 687027); type: functional, cell-based;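 also: luciferase reporter driven by Pax8 target thyroperoxidase promoter measured by SteadyGlo luminescence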
# [2] = target: T1, Ubiquitin-conjugating enzyme E2 N (Homo sapiens, UniProt P61088); type: functional;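 also: Dose-response confirmation in a TR-FRET assay detecting UBC13-driven polyubiquitin chain formation, inhibition measured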
# T1 sequence (P61088 whole entry): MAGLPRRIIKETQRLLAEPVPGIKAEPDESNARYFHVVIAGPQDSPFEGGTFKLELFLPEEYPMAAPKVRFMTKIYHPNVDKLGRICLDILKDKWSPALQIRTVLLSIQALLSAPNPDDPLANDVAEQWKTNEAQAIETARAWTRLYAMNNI
# [3] = MITF: Counter assay: A375 proliferation Measured in Cell-Based System Using Plate Reader - 2084-03_Inhibitor_Dose_DryPowder_Activity_Set8.; type: functional; conditions: A-375
# [4] = MITF Orthogonal Assay: SK-MEL-5 CTG Assay Measured in Cell-Based System Using Plate Reader - 2084-02_Inhibitor_Dose_DryPowder_Activity_Set7.; type: functional
# cells [5] = type: functional, cell-based
# [6] = target: T2, Trace amine-associated receptor 1 (Homo sapiens, UniProt Q96RJ0); experiment: Fluorescence-based cell-based high throughput dose response assay to identify agonists of the human trace amine associated receptor 1 (TAAR1).; type: functional
# T2 sequence (Q96RJ0 whole entry): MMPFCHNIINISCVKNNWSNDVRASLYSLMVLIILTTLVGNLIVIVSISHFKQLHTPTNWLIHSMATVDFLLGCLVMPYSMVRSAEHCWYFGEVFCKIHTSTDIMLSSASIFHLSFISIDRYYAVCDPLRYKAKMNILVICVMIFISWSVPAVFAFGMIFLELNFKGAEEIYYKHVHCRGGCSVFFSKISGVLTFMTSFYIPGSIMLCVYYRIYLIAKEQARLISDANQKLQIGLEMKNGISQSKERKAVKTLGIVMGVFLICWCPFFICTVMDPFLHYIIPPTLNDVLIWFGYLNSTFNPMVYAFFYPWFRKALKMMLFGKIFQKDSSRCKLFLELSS
# cells [7] = type: functional, cell-based; remark: listed apart in the source
# [8] = target: T2, Trace amine-associated receptor 1; experiment: Counterscreen for agonists of the human trace amine associated receptor 1 (hTAAR1): Fluorescence-based cell-based high throughput dose response assay to identify hTAAR1 agonist that also desensitize TAAR1 receptor response.; type: functional
# [9] = OVCAR8 cell viability loss – plate reader, dry powder samples, PAX8 project, dose response (AID 743197); type: functional, cell-based; conditions: OVCAR-8
# [10] = OVCAR-3 cell viability loss – plate reader, dry powder samples, PAX8 inhibitor project, dose response (AID 743044); type: functional, cell-based
# [11] = IGROV1 cell killing – plate reader, dry powder samples, PAX8 inhibitor project, dose response (AID 743043); type: functional, cell-based; conditions: IGROV-1
# [12] = target: Tyrosyl-DNA phosphodiesterase 2 (Homo sapiens, UniProt O95551); experiment: potency against TDP2 phosphodiesterase activity – biochemical, epi absorbance, IC50, dose response (AID 743297)
# [13] = target: T3, Mannose-6-phosphate isomerase (Homo sapiens, UniProt P34949); experiment: MPI inhibition at elevated mannose 6-phosphate – biochemical, fluorescence intensity, high mannose 6-phosphate, primary screen (AID 1220)
# T3 sequence (P34949 whole entry): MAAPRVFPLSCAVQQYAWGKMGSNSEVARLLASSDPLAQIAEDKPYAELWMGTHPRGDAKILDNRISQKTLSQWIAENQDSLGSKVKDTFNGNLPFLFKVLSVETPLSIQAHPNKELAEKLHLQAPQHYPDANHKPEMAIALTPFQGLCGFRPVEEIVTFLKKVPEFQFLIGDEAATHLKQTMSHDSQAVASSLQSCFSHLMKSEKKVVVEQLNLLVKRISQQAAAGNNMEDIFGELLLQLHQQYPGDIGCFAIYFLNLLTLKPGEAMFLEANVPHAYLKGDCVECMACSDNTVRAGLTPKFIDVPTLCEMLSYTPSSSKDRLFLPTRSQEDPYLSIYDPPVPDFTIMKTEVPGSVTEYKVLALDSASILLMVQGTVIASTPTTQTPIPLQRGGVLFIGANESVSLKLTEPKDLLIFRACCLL
# Chain of Paired box protein Pax-8 (Q06710 whole entry): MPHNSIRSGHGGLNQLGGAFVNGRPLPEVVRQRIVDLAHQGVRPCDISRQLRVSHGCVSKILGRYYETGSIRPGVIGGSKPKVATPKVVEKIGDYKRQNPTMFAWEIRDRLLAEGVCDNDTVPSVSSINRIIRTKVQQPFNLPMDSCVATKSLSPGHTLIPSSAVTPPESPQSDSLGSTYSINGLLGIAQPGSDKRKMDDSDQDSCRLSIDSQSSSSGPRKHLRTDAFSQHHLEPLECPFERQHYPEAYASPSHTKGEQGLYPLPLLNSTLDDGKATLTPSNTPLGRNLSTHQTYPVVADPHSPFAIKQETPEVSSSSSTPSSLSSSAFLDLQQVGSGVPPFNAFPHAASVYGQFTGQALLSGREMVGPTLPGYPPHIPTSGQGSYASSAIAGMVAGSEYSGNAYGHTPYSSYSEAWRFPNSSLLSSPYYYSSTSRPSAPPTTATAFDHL
# Chain of Tyrosyl-DNA phosphodiesterase 2 (O95551 whole entry): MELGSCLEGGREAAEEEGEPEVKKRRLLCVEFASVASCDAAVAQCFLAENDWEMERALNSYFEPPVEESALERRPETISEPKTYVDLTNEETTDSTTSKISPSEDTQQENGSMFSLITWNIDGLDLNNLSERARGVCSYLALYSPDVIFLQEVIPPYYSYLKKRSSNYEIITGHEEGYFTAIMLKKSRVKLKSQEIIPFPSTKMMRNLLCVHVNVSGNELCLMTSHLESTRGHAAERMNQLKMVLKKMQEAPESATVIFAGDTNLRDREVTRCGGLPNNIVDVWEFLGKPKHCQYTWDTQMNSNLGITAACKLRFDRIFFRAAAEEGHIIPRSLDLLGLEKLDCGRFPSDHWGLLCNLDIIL
compound,measurement,setting,value
CCC[C@@H](CN[C@@H](CNC)[C@H](C)CC)NCC1CCC(C(C)(C)C)CC1 (stereo not given in full),AC50,[1],37.7 µM (active)
same,AC50,Paired box protein Pax-8,14.4 µM (active)
same,IC50,[2],> 20 µM (inactive)
COc1ccc(NC2=CC(=O)c3ccccc3C2=O)cc1,AC50,[3],> 70 µM (inactive)
same,AC50,[4],838 nM (active)
CC(C)=C1C2CCC1C(C(=O)NCCc1ccccc1)C2C(=O)O (stereo not given),EC50,cells [5],> 29.9 µM (inactive)
same,EC50,[6],189 nM (active)
same,IC50,cells [7],> 29.9 µM (inactive)
same,IC50,[8],2.42 µM (active)
C[C@@H]1CN([C@H](C)CO)C(=O)c2cc(NC(=O)CCC(F)(F)F)ccc2O[C@@H](C)CCCCO[C@@H]1CN(C)Cc1ccc(Cl)c(Cl)c1,AC50,[9],61 µM (active)
same,AC50,Paired box protein Pax-8,7.47 µM (active)
same,AC50,[10],33.3 µM (active)
same,AC50,[11],45.7 µM (active)
Nn1cnnc1N/N=C\c1ccc(-c2ccccc2[N+](=O)[O-])o1,IC50,[12],> 128 µM (inactive)
same,IC50,[13],> 50 µM (not active)
